The structures appear in SMILES notation.

This assay deals with T1, JAK3 (Homo sapiens, UniProt P52333).
T1 construct: endogenous in cells; host or cells: mixed Molt4/Ramos lysate (1:2)
T1 sequence (P52333 1-1124): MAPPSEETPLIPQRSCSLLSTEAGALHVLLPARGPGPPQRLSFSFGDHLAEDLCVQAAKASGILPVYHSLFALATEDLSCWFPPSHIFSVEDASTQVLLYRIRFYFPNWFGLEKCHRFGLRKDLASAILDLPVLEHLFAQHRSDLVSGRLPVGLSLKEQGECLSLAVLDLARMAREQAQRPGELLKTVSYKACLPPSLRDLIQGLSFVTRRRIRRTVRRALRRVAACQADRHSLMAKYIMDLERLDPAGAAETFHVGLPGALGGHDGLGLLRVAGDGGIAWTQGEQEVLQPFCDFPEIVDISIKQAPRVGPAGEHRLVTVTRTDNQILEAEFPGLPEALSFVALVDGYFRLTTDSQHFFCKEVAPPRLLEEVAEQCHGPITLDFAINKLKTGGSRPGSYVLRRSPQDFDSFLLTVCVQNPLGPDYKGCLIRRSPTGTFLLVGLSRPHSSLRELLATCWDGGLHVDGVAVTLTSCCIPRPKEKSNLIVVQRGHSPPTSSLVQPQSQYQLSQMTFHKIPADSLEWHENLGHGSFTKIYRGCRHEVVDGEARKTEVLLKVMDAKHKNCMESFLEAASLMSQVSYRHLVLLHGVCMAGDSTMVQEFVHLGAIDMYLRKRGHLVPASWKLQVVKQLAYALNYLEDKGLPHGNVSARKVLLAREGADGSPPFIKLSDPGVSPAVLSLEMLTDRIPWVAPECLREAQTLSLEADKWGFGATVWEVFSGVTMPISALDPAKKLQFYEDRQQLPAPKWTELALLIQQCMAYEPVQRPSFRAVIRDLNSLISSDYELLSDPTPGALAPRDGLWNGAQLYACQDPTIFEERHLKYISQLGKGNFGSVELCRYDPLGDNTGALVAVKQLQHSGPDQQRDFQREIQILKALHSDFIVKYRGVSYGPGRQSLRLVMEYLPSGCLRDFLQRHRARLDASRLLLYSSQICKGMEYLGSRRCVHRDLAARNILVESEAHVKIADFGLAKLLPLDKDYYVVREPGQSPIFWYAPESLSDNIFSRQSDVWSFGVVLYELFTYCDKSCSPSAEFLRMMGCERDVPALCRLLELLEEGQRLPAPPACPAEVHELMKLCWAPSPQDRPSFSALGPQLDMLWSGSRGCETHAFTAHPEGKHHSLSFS
Briefly: Kinobeads assay, JAK3. Type of assay: binding. Conditions: mixed Molt4/Ramos lysate, read-out: Inhibition values (IC50) JAK3. The procedure: The compounds of the present invention as described in the previous examples were tested in a Kinobeads™ assay as described for ZAP-70 (WO-A 2007/137867). Briefly, test compounds (at various concentrations) and the affinity matrix with the immobilized aminopyrido-pyrimidine ligand 24 were added to cell lysate aliquots and allowed to bind to the proteins in the lysate sample. After the incubation time the beads with captured proteins were separated from the lysate. Bound proteins were then eluted and the presence of JAK2 and JAK3 was detected and quantified using specific antibodies in a dot blot procedure and the Odyssey infrared detection system. Dose response curves for individual kinases were generated and IC50 values calculated. Kinobeads™ assays for ZAP-70 (WO-A 2007/137867) and for kinase selectivity profiling (WO-A 2006/134056) have been previously described.
The affinity matrix was washed two times with 15 mL of 1×DP buffer containing 0.2% NP40 (IGEPAL® CA-630, Sigma, #I3021) and then resuspended in 1×DP buffer containing 0.2% NP40 (3% beads slurry).
5×DP buffer 250 mM Tris-HCl pH 7.4, 25% Glycerol, 7.5 mM MgCl2, 750 mM NaCl, 5 mM Na3VO4; filter the 5×DP buffer through a 0.22 μm filter and store in aliquots at −80° C. The 5×DP buffer is diluted with H2O to 1×DP buffer containing 1 mM DTT and 25 mM NaF.
Stock solutions of test compounds were prepared in DMSO. In a 96 well plate 30 μL solution of diluted test compounds at 5 mM in DMSO were prepared. Starting with this solution a 1:3 dilution series (9 steps) was prepared. For control experiments (no test compound) a buffer containing 2% DMSO was used.
Molt4 cells (ATCC catalogue number CRL-1582) and Ramos cells (ATCC catalogue number CRL-1596) were grown in 1 L Spinner flasks (Integra Biosciences, #182101) in suspension in RPMI 1640 medium (Invitrogen, #21875-034) supplemented with 10% Fetal Bovine Serum (Invitrogen) at a density between 0.15×106 and 1.2×10^6 cells/mL. Cells were harvested by centrifugation, washed once with 1×PBS buffer (Invitrogen, #14190-094) and cell pellets were frozen in liquid nitrogen and subsequently stored at −80° C. Cells were homogenized in a Potter S homogenizer in lysis buffer: 50 mM Tris-HCl, 0.8% NP40, 5% glycerol, 150 mM NaCl, 1.5 mM MgCl2, 25 mM NaF, 1 mM sodium vanadate, 1 mM DTT, pH 7.5. One complete EDTA-free tablet (protease inhibitor cocktail, Roche Diagnostics, 1873580) per 25 mL buffer was added. The material was dounced 10 times using a mechanized POTTER S, transferred to 50 mL falcon tubes, incubated for 30 minutes on ice and spun down for 10 minutes at 20,000 g at 4° C. (10,000 rpm in Sorvall SLA600, precooled). The supernatant was transferred to an ultracentrifuge (UZ)-polycarbonate tube (Beckmann, 355654) and spun for 1 hour at 100,000 g at 4° C. (33.500 rpm in Ti50.2, precooled). The supernatant was transferred again to a fresh 50 mL falcon tube, the protein concentration was determined by a Bradford assay (BioRad) and samples containing 50 mg of protein per aliquot were prepared. The samples were immediately used for experiments or frozen in liquid nitrogen and stored frozen at −80° C.
Cell lysate (approximately 50 mg protein per plate) was thawed in a water bath at room temperature and then stored on ice. To the thawed cell lysate 1×DP 0.8% NP40 buffer containing protease inhibitors (1 tablet for 25 mL buffer; EDTA-free protease inhibitor cocktail; Roche Diagnostics 1873580) was added in order to reach a final protein concentration of 10 mg/mL total protein. The diluted cell lysate was stored on ice. Mixed Molt4/Ramos lysate was prepared by combining one volume of Molt4 lysate and two volumes of Ramos lysate (ratio 1:2).
To a 96 well filter plate (Multiscreen HTS, BV Filter Plates, Millipore #MSBVN1250) were added per well: 100 μL affinity matrix (3% beads slurry), 3 μL of compound solution, and 50 μL of diluted lysate. […]

As to `OCCCn1cc(Nc2ncc3cnn(Cc4cccc(N5CCOCC5)c4)c3n2)cn1` [Example 18, 3-(4-((1-(3-Morpholinobenzyl)-1H-pyrazolo[3,4-d]pyrimidin-6-yl)amino)-1H-pyrazol-1-yl)propan-1-ol], the IC50 (as a rule, the concentration needed to halve the response being measured) was < 100 nM. The same measure for `CNCCCn1cc(Nc2ncc3cnn(Cc4cc(F)cc(N5CCOCC5=O)c4)c3n2)cn1` [Example 99, 4-(3-fluoro-5-((6-((1-(3-(methylamino)propyl)-1H-pyrazol-4-yl)amino)-1H-pyrazolo[3,4-d]pyrimidin-1-yl)methyl)phenyl)morpholin-3-one]: < 100 nM; for `CC(CN(C)C)Cn1cc(Nc2ncc3cnn(Cc4cccc(N5CCOCC5)c4)c3n2)cn1` (stereo not shown) [Example 32, N-(1-(3-(Dimethylamino)-2-methylpropyl)-1H-pyrazol-4-yl)-1-(3-morpholinobenzyl)-1H-pyrazolo[3,4-d]pyrimidin-6-amine]: < 100 nM; for `Cn1cc(Nc2ncc3cnn(Cc4cccc(-c5cnn(C)c5)c4)c3n2)cn1` [Example 115, N-(1-methyl-1H-pyrazol-4-yl)-1-(3-(1-methyl-1H-pyrazol-4-yl)benzyl)-1H-pyrazolo[3,4-d]pyrimidin-6-amine]: < 100 nM. On to `Cn1cc(Nc2ncc3cnn(Cc4cccc(-c5cnn(CCO)c5)c4)c3n2)cn1` [Example 121, 2-(4-(3-((6-((1-methyl-1H-pyrazol-4-yl)amino)-1H-pyrazolo[3,4-d]pyrimidin-1-yl)methyl)phenyl)-1H-pyrazol-1-yl)ethanol], for which the IC50 is < 100 nM. In the case of `Cn1cc(Nc2ncc3cnn(Cc4cccc(N5CCOCC5=O)c4)c3n2)cn1` [Example 27, 4-(3-((6-((1-Methyl-1H-pyrazol-4-yl)amino)-1H-pyrazolo[3,4-d]pyrimidin-1-yl)methyl)phenyl)morpholin-3-one], the IC50 was < 100 nM. Consider `O=C1COCCN1c1cc(F)cc(Cn2ncc3cnc(Nc4cnn(CCS(=O)(=O)NC5CC5)c4)nc32)c1` [Example 106, N-cyclopropyl-2-(4-((1-(3-fluoro-5-(3-oxomorpholino)benzyl)-1H-pyrazolo[3,4-d]pyrimidin-6-yl)amino)-1H-pyrazol-1-yl)ethanesulfonamide], for which the IC50 was < 100 nM. With `Cn1cc(Nc2ncc3cnn(Cc4cccc(N5CCC6(COC6)C5)c4)c3n2)cn1` [Example 104, 1-(3-(2-oxa-6-azaspiro[3.4]octan-6-yl)benzyl)-N-(1-methyl-1H-pyrazol-4-yl)-1H-pyrazolo[3,4-d]pyrimidin-6-amine], the IC50 is 100 to 1000 nM. Next, `Cn1cc(Nc2ncc3cnn(Cc4cc(F)cc(N5CCNCC5)c4)c3n2)cn1` [Example 92, 1-(3-fluoro-5-(piperazin-1-yl)benzyl)-N-(1-methyl-1H-pyrazol-4-yl)-1H-pyrazolo[3,4-d]pyrimidin-6-amine]: < 100 nM; `Cn1cc(-c2cccc(Cn3ncc4cnc(Nc5cnn(CCO)c5)nc43)c2)cn1` [Example 122, 2-(4-((1-(3-(1-methyl-1H-pyrazol-4-yl)benzyl)-1H-pyrazolo[3,4-d]pyrimidin-6-yl)amino)-1H-pyrazol-1-yl)ethanol]: < 100 nM; `Fc1cc(N2CCOCC2)c(F)c(Cn2ncc3cnc(Nc4cnn(CC5CCNC5)c4)nc32)c1F` (stereo not shown) [Example 94, N-(1-(pyrrolidin-3-ylmethyl)-1H-pyrazol-4-yl)-1-(2,3,6-trifluoro-5-morpholinobenzyl)-1H-pyrazolo[3,4-d]pyrimidin-6-amine]: < 100 nM. As for `Cn1cc(Nc2ncc3cnn(Cc4cc(-c5cnn(C)c5)cc(F)c4F)c3n2)cn1` [Example 126, 1-(2,3-difluoro-5-(1-methyl-1H-pyrazol-4-yl)benzyl)-N-(1-methyl-1H-pyrazol-4-yl)-1H-pyrazolo[3,4-d]pyrimidin-6-amine], the IC50 is < 100 nM. With `Cn1cc(Nc2ncc3cnn(Cc4cccc(N5CCOCC5)c4Cl)c3n2)cn1` [Example 103, 1-(2-chloro-3-morpholinobenzyl)-N-(1-methyl-1H-pyrazol-4-yl)-1H-pyrazolo[3,4-d]pyrimidin-6-amine], the IC50 was < 100 nM. For the compound `Cn1cc(Nc2ncc3cnn(Cc4cccc(NC5COC5)c4)c3n2)cn1` [Example 114, N-(1-methyl-1H-pyrazol-4-yl)-1-(3-(oxetan-3-ylamino)benzyl)-1H-pyrazolo[3,4-d]pyrimidin-6-amine], the IC50 is < 100 nM.

Regarding `Cn1cc(Nc2ncc3cnn(Cc4cccc(N5CCOCC5)n4)c3n2)cn1` [Example 3, N-(1-Methyl-1H-pyrazol-4-yl)-1-((6-morpholinopyridin-2-yl)methyl)-1H-pyrazolo[3,4-d]pyrimidin-6-amine], the IC50 is < 100 nM. As to `Cn1cc(Nc2ncc3cnn(Cc4cccc(N5CC6CCC(C5)O6)c4)c3n2)cn1` [Example 26], the concentration for half-maximal inhibition (IC50) is < 100 nM.

As for `O=C1COCCN1c1cc(F)cc(Cn2ncc3cnc(Nc4cnn(C5CCNCC5)c4)nc32)c1` [Example 102, 4-(3-fluoro-5-((6-((1-(piperidin-4-yl)-1H-pyrazol-4-yl)amino)-1H-pyrazolo[3,4-d]pyrimidin-1-yl)methyl)phenyl)morpholin-3-one], the IC50 was < 100 nM. Next, `O=C1COCCN1c1cccc(Cn2ncc3cnc(Nc4cnn(CCO)c4)nc32)c1` [Example 29, 4-(3-((6-((1-(2-Hydroxyethyl)-1H-pyrazol-4-yl)amino)-1H-pyrazolo[3,4-d]pyrimidin-1-yl)methyl)phenyl)morpholin-3-one]: < 100 nM; `Cn1cc(Nc2ncc3cnn(Cc4cccc(N5CCN(S(C)(=O)=O)CC5)c4)c3n2)cn1` [Example 100, N-(1-methyl-1H-pyrazol-4-yl)-1-(3-(4-(methylsulfonyl)piperazin-1-yl)benzyl)-1H-pyrazolo[3,4-d]pyrimidin-6-amine]: < 100 nM.

The values are drawn from patent publication US9040545B2, “Heterocyclyl pyrazolopyrimidine analogues as selective JAK inhibitors” (Cellzome Limited, priority 2010, dated 2015).
